Laboratory results: patent US8410138B2, “Compounds for activating TGF-beta signaling” (The Board of Trustees of the Leland Stanford Junior …, priority 2007, dated 2013)
Like-named read-outs stand apart in the source and are kept apart here.

System: TGF-β signaling (SBE-SEAP reporter) in MFB-F11 cells
Type: cell-based, mouse
Conditions: for Relative TGF-β activity, fold change compared with vehicle: cell reporter assay
Procedure: All compounds were tested twice, in duplicate, using the MFB-F11 cell line. 80 compounds were selected for further study based on induction of the reporter gene in any of the replicates. These compounds were tested again in MFB-F11 or C6-H4 cells, either alone or in the presence of 100 pg/ml of TGF-β1, to test for synergistic activities.

Structure (SMILES): CCOC(=O)CNC(=O)Nc1ccc(N2CCN(c3ccccc3OC)CC2)c(C(=O)NC(C)c2ccccc2)c1 (stereo not drawn) [Compound 5E, ethyl 2-(3-(4-(4-(2-methoxyphenyl)piperazin-1-yl)-3-(1-phenylethylcarbamoyl)phenyl)ureido)acetate]
- TGF-β agonist activity (data of FIGS. 1A-1J): TGF-β-agonists

Structure (SMILES): COCCN(CC(=O)N(CCc1c[nH]c2ccccc12)Cc1ccc(F)cc1)C(=O)C(C)Cl (stereo not drawn) [Compound 13F03]
- Relative TGF-β activity, fold change compared with vehicle (3 μM): 1.3 fold
- Relative TGF-β activity, fold change compared with vehicle (10 μM): 1.9 fold
- Relative TGF-β activity, fold change compared with vehicle (30 μM): 3.8 fold
- Relative TGF-β activity, fold change compared with vehicle (100 μM): 9.1 fold

Structure (SMILES): COCCCN(CC(=O)N(CCc1c[nH]c2ccccc12)Cc1ccc(C(F)(F)F)cc1)C(=O)C1CC1c1ccccc1 (stereo not drawn) [Compound 21A08]
- Relative TGF-β activity, fold change compared with vehicle (3 μM): 1.1 fold
- Relative TGF-β activity, fold change compared with vehicle (10 μM): 1.5 fold
- Relative TGF-β activity, fold change compared with vehicle (30 μM): 1.9 fold
- Relative TGF-β activity, fold change compared with vehicle (100 μM): 2.7 fold

Structure (SMILES): Cc1ccc(C(=O)N(CC(=O)N(CCc2c[nH]c3ccccc23)Cc2ccc(C(F)(F)F)cc2)C(C)C)cc1[N+](=O)[O-] [Compound 21F11]
- Relative TGF-β activity, fold change compared with vehicle (3 μM): 0.8 fold
- Relative TGF-β activity, fold change compared with vehicle (10 μM): 1.6 fold
- Relative TGF-β activity, fold change compared with vehicle (30 μM): 2.7 fold
- Relative TGF-β activity, fold change compared with vehicle (100 μM): 6.5 fold

Structure (SMILES): COCCN(CC(=O)N(CCc1c[nH]c2ccccc12)Cc1ccc(F)cc1)C(=O)c1ccc(Cl)c([N+](=O)[O-])c1 [Compound 22B05]
- Relative TGF-β activity, fold change compared with vehicle (3 μM): 1.1 fold
- Relative TGF-β activity, fold change compared with vehicle (10 μM): 1.2 fold
- Relative TGF-β activity, fold change compared with vehicle (30 μM): 1.7 fold
- Relative TGF-β activity, fold change compared with vehicle (100 μM): 2.8 fold

Structure (SMILES): COCCCN(CC(=O)N(CCc1c[nH]c2ccccc12)Cc1ccc(F)cc1)C(=O)c1ccccc1Cl [Compound 22D03]
- Relative TGF-β activity, fold change compared with vehicle (3 μM): 1.4 fold
- Relative TGF-β activity, fold change compared with vehicle (10 μM): 3.7 fold
- Relative TGF-β activity, fold change compared with vehicle (30 μM): 8.3 fold
- Relative TGF-β activity, fold change compared with vehicle (100 μM): 8.8 fold

Structure (SMILES): COCCCN(CC(=O)N(CCc1c[nH]c2ccccc12)Cc1ccc(F)cc1)C(=O)c1ccc(C(F)(F)F)cc1 [Compound 22E02]
- Relative TGF-β activity, fold change compared with vehicle (3 μM): 1.4 fold
- Relative TGF-β activity, fold change compared with vehicle (10 μM): 4.7 fold
- Relative TGF-β activity, fold change compared with vehicle (30 μM): 8.6 fold
- Relative TGF-β activity, fold change compared with vehicle (100 μM): 9.1 fold

Structure (SMILES): CC(C)N(CC(=O)N(CCc1c[nH]c2ccccc12)Cc1ccc(N(C)C)cc1)C(=O)C(Cl)Cl [Compound 23B08]
- Relative TGF-β activity, fold change compared with vehicle (3 μM): 1.1 fold
- Relative TGF-β activity, fold change compared with vehicle (10 μM): 1.8 fold
- Relative TGF-β activity, fold change compared with vehicle (30 μM): 3.1 fold
- Relative TGF-β activity, fold change compared with vehicle (100 μM): 4.5 fold

Structure (SMILES): CCOC(=O)CCC(=O)N(CC(=O)N(CCc1c[nH]c2ccccc12)Cc1ccc(N(C)C)cc1)C(C)C [Compound 23D05]
- Relative TGF-β activity, fold change compared with vehicle (3 μM): 0.8 fold
- Relative TGF-β activity, fold change compared with vehicle (10 μM): 1.1 fold
- Relative TGF-β activity, fold change compared with vehicle (30 μM): 1.7 fold
- Relative TGF-β activity, fold change compared with vehicle (100 μM): 4.7 fold

Structure (SMILES): COCCN(CC(=O)N(CCc1c[nH]c2ccccc12)Cc1ccc(OC)c(OC)c1)C(=O)C(Cl)Cl [Compound 24D04]
- Relative TGF-β activity, fold change compared with vehicle (3 μM): 1.2 fold
- Relative TGF-β activity, fold change compared with vehicle (10 μM): 1.1 fold
- Relative TGF-β activity, fold change compared with vehicle (30 μM): 1.5 fold
- Relative TGF-β activity, fold change compared with vehicle (100 μM): 2.7 fold

Structure (SMILES): CC(C)N(CC(=O)N(CCc1c[nH]c2ccccc12)Cc1ccc(Cl)c(Cl)c1)C(=O)CC(C)(C)C [Compound 37C02]
- Relative TGF-β activity, fold change compared with vehicle (3 μM): 0.7 fold
- Relative TGF-β activity, fold change compared with vehicle (10 μM): 1.0 fold
- Relative TGF-β activity, fold change compared with vehicle (30 μM): 1.4 fold
- Relative TGF-β activity, fold change compared with vehicle (100 μM): 3.1 fold

Structure (SMILES): CC(C)(CCl)C(=O)N(CC(=O)N(CCc1c[nH]c2ccccc12)Cc1ccccc1)C1CC1 [Compound 44A04]
- Relative TGF-β activity, fold change compared with vehicle (3 μM): 1.2 fold
- Relative TGF-β activity, fold change compared with vehicle (10 μM): 2.3 fold
- Relative TGF-β activity, fold change compared with vehicle (30 μM): 2.7 fold
- Relative TGF-β activity, fold change compared with vehicle (100 μM): 2.8 fold
